Data: patent publication US10265302B2, “Compound useful for the treatment of nonsense-mutation-mediated diseases and pharmaceutical composition comprising said compound” (UNIVERSITE DE LILLE, priority 2010, dated 2019)

Columns and labels:
[1] = system: NMD; settings: cited from earlier work
[2] = system: NMD (Firefly luciferase mRNA tethered with MS2-UPF fusion protein); test: NMD inhibition using Firefly luciferase in HeLa cells; type: cell-based; settings: 10 μmol/l of G07, versus control wells
Description: The presence of one of the following UPF proteins (UPF1, UPF2, UPF3 (also called UPF3a) or UPF3X (also called UPF3b)) on the 3′UTR part of an mRNA, activates NMD on this particular mRNA. When an UPF protein is located downstream from a normal stop codon, said normal stop codon is recognized as a PTC. Consequently, the mRNA comprising the UPF protein will be degraded through NMD.
HeLa cell-line expressing Firefly luciferase mRNA were used. Firefly luciferase mRNA harbors MS2 binding sites in the 3′UTR. The above-mentioned cells further contain a fusion protein which consists in said MS2 protein and one of the four UPF proteins. This fusion protein enables UPF positioning downstream from the normal stop codon (i.e. on the 3′UTR part of this mRNA). Accordingly, the normal stop codon is recognized as a PTC. Consequently, NMD is activated and degrades Firefly luciferase mRNA.
Luciferase activity in the above-mentioned cells is thus directly linked to NMD activity.
HeLa cells were cultured in DMEM (Gibco) supplemented with 10% FBS and containing 10 μmol/l of G07.

[3] = system: P53 mRNA (UGA PTC at codon 196) in Calu-6 cells; test: P53 mRNA level in Calu-6 cells by RT-PCR; type: cell-based
Description: RNAs of said Calu-6 cells were reverse transcribed and amplified through PCR (RT-PCR) in the presence of a radioactive labeling nucleotide in order to measure P53 mRNA and GAPDH mRNA levels (GAPDH being used as a loading control). […] Amplified reverse transcribed mRNAs were loaded on an acrylamide gel and submitted to electrophoresis. Acrylamide gel was then dried on Whatman paper and applied on a phosphoscreen (Kodak). A Personal Molecular Imager (Bic-Rad) was used to quantify amplified radiolabelled species. Calu-6 cells were incubated with growing concentrations of G07 in DMSO during about twenty hours. This was carried out in order to confirm NMD inhibition activity of G07. After incubation, RNAs were purified by using TriReagent (MRC) and then reverse-transcribed into cDNA which can be PCR amplified in presence of a radiolabelled nucleotide.
Thus, an increasing quantity of P53 mRNA results from stabilization thereof. […] GAPDH (Glyceraldehyde 3-phosphate deshydrogenase) mRNA was amplified in order to normalize the measurement of P53 mRNA between two lanes.

[4] = system: P53 protein in Calu-6 cells; test: P53 and P21 protein in Calu-6 cells by Western blot; type: cell-based
Protocol: Moreover, G07 enables the synthesis of a truncated P53 protein and a full-length P53 protein in Calu-6 cells. G07 is thus different from the molecules disclosed in WO 2008/101935. Regarding the molecules disclosed in the above-mentioned document, only the truncated protein has been detected. Protein extracts of Calu-6 cells incubated or not with G07 were loaded on an electrophoresis gel and then transferred on a nitrocellulose membrane in order to detect P53 protein after incubation with an anti-P53 antibody (an anti-P53 antibody is an antibody directed against the amino terminal part of P53 (Santa Cruz)).
When P53 protein is synthesized, P53 activates P21 expression. […] Thus, P53 protein synthesized thanks to G07 induces P21 expression as WT P53 protein does. Consequently, the Applicants have thus confirmed that G07 enables the synthesis of a functional full-length P53 protein.

[5] = system: MOR mRNA (MOR gene with NMD-activating nonsense-mutation); test: In vivo NMD inhibition in KIM mice (MOR mRNA in brain); set-up: species or system mouse; settings: 1Q and 2Q (0.2 and 2 mg/kg) injected in DMSO, 24 hours after injection
Protocol: In KIM mice, MOR gene harbors a NMD-activating nonsense-mutation. MOR gene is expressed in nervous central system. Solutions containing 0.2, 2 or 20 mg/kg of G07 (1Q, 2Q or 3Q respectively) dissolved in DMSO were injected into KIM mice. A control group consists of animals treated with pure DMSO. Animals were then euthanized 6, 24 or 32 hours after injection. RNAs extracted from brain homogenates were purified using TriReagent (MRC) and then analyzed as described with reference to FIG. 2. The difference between the experiments described with reference to FIG. 2 is that in the present case the mRNAs analyzed are the mRNA coding for MOR gene and the mRNA coding for the GAPDH gene used as a control to quantify measured MOR mRNA. The first 3 wells from the left correspond to a half dilution of a sample coming from a wild-type mouse brain. These 3 wells were used to check the PCR conditions which have to be quantitatively useful. […] The same technique as described with reference to FIG. 2 was used except the fact that RNA comes from KIM mice brains. Some of these KIM mice were injected with G07.

[6] = system: CFTR mRNA (PTC at position 1282) in IB3 cells; test: NMD inhibition in IB3 cells (CFTR mRNA by RT-PCR); type: cell-based; settings: increasing concentrations, 20 hours
Protocol: IB3 cells harbor a […] in position 1282 in place of the tryptophan codon of the CFTR gene.
IB3 cells (ATCC) were incubated in DMSO solutions containing pure DMSO (as a control) or increasing G07 concentrations, respectively, during 20 hours.
RNAs obtained after incubation were purified and a RT-PCR was performed to measure the amount of CFTR mRNA (containing a PTC) and the amount of GADPH mRNA (used as a control).

[7] = system: CFTR in 6-CFSMEo- cells; test: Iodide efflux in 6-CFSMEo- cells (SPQ fluorescence); type: cell-based; settings: 6-CFSMEo- cells, 0.2, 1, 5 and 25 μM; forskolin 20 μM and IBMX 200 μM
Protocol: 6-CFSMEo− cells harbor a PTC in place of the glutamine 2 codon of the CFTR gene.
6-CFSMEo^− cells were seeded in 96-well plates and loaded overnight with 10 mM of the halide-sensitive fluorophore dye 6-methoxy-N-(3-sulfopropyl)-quinolinium (SPQ, Invitrogen). Cells were washed twice with iodide buffer (135 mM NaI, 2.4 mM K2HPO4, 0.6 mM KH2PO4, 1 mM MgSO4, 1 mM CaSO4, 10 mM dextrose and 10 mM Hepes, pH 7.3) and then incubated in iodide buffer for 30 min. After basal fluorescence was measured for 2 min, the iodide buffer was replaced with nitrate buffer (with 135 mM NaNO3 instead of NaI) containing 20 μM of forskolin and 200 μM of IBMX, and fluorescence was further measured for 10 minutes. The fluorescence intensities were measured every 15 seconds using the Tristar LB 941 microplate reader (Berthold) equipped with a 340 nm excitation filter and a 450 nm emission filter. […] G07 concentrations used were 0.2 μM, 1 μM, 5 μM and 25 μM, respectively. The increase in iodide efflux is shown as mean±SEM from at least four independent assays. It refers to the fluorescence at the reading time; F0 refers to the average fluorescence before addition of the above-mentioned nitrate buffer containing 20 μM of forskolin and 200 μM of IBMX.

[8] = system: PTC-containing dystrophin gene in DMD cells; test: Dystrophin mRNA in DMD cells by RT-PCR; type: cell-based
Protocol: As regards the results of FIG. 11 a, DMD cells were incubated with increasing amounts of […] molecule or as a control with DMSO. RNAs were purified using RNazol reagent (MRC) and reverse transcribed using Superscript. II (Life technologies) and random hexamer. PCR using radiolabelled CTP was performed in order to amplify either dystrophin or GAPDH cDNA. Amplification products were loaded on 5% polyacrylamide gel. The gel was then dried and exposed on phosphoscreen in order to allow quantification of each amplification species by Personal Molecular Imager (Biorad).

[9] = system: PTC-containing dystrophin gene in DMD cells; test: Dystrophin protein in DMD cells by Western blot; type: cell-based
Protocol: As regards the results of FIG. 11 b, DMD cells were incubated with increasing amounts of […] molecule or as a control with DMSO. Protein extracts from these cells were loaded on 10% SDS-PAGE and transferred on nitrocellulose membrane. Nitrocellulose membrane was then exposed to primary antibody (either anti-dystrophin antibody raised against the amino-part of dystrophin protein (Santa-Cruz), or anti-tubulin antibody in order to specify the loading protein amount of each lane.

[10] = after oral administration; cited from earlier work

| SMILES | NMD inhibiting activity [1] | luciferase activity (NMD inhibition) [2] | NMD inhibition / P53 mRNA stabilization ([3]; 25 μM) | quantity of P53 mRNA (normalised to GAPDH mRNA) ([3]; growing concentrations in DMSO, about twenty hours) | P21 protein (functionality of P53) ([4]; 25 and 125 μM) | P53 protein synthesis (Western blot) ([4]; about 20 hours incubation) | MOR mRNA level in brain [5] | ratio amount of CFTR mRNA/amount of GAPDH mRNA [6] | iodide efflux [7] | concentration of maximum efficacy, dystrophin mRNA [8] | dystrophin mRNA (RT-PCR) ([8]; increasing amounts) | concentration of maximum efficacy, dystrophin protein [9] | dystrophin protein (Western-blot) ([9]; increasing amounts) | tissue distribution [10] |
| --- | --- | --- | --- | --- | --- | --- | --- | --- | --- | --- | --- | --- | --- | --- |
| O=C(O)c1cccc(-c2noc(-c3ccccc3F)n2)c1 [PTC124, 3-[5-(2-fluorophenyl)-1,2,4-oxadiazol-3-yl]benzoïc acid] | no NMD inhibiting activity |  |  |  |  |  |  |  |  |  |  |  |  |  |
| CC(C)c1ccc2oc3nc(N)c(C(=O)O)cc3c(=O)c2c1 [G07, 2-amino-7-isopropyl-5-oxo-5H-chromeno[2,3-b]pyridine-3-carboxylic acid] |  | higher than in control wells | inhibits NMD and enables a stabilization of P53 mRNA | increased quantity of P53 mRNA | presence of P21 | full-length and truncated P53 proteins are synthesized | stabilization of MOR mRNA | increased stabilization of CTFR mRNA | dose-response effect | 5 µM | stabilization of dystrophin mRNA | 5 µM | synthesis of dystrophin protein | preferably distributed in liver, kidneys and intestine |
